The results in this text go back to patent US9108926B2, “Disubstituted 5-fluoro-pyrimidines” (Bayer Intellectual Property GmbH, priority 2011, dated 2015).

One data set can be described thus: Caco-2 permeation assay. It is filed as in vitro ADME. Conditions: human, pH 7.2, Caco-2, test compound 2 μM; for Papp A→B at 2 h, 2 μM: apical to basolateral, read-out: Papp A-B (Mari); for Papp B→A at 2 h, 2 μM: basolateral to apical, read-out: Papp B-A (Mari). Here is the method: 4. Caco-2 Permeation Assay:
Caco-2 cells (purchased from DSMZ Braunschweig, Germany) were seeded at a density of 4.5×10^4 cells per well on 24 well insert plates, 0.4 μm pore size, and grown for 15 days in DMEM medium supplemented with 10% fetal bovine serum, 1% GlutaMAX (100×, GIBCO), 100 U/mL penicillin, 100 μg/mL streptomycin (GIBCO) and 1% non essential amino acids (100×). Cells were maintained at 37° C. in a humified 5% CO2 atmosphere. Medium was changed every 2-3 day. Before running the permeation assay, the culture medium was replaced by a FCS-free hepes-carbonate transport buffer (pH 7.2). For assessment of monolayer integrity the transepithelial electrical resistance (TEER) was measured. Test compounds were predissolved in DMSO and added either to the apical or basolateral compartment in final concentration of 2 μM in transport buffer. Before and after 2 h incubation at 37° C. samples were taken from both compartments. Analysis of compound content was done after precipitation with methanol by LC/MS/MS analysis. Permeability (Papp) was calculated in the apical to basolateral (A→B) and basolateral to apical (B→A) directions. […] The efflux ratio basolateral (B) to apical (A) was calculated by dividing the Papp B−A by the Papp A−B. In addition the compound recovery was calculated. The following reference compounds were used for the classification of the permeability class: Antipyrine, Pyrazosin, Verapamil, Fluvastatin, Cimetidine, Ranitidine, Atenolol, Sulfasalazine.

A further data set concerns the target CDK2/CycE (Homo sapiens, UniProt P24941). The experiment in a line: CDK2/CycE kinase assay (TR-FRET, Method 2).
For the next data set, the system named is NCI-H460 cells. As to the kind of experiment: Proliferation assay, NCI-H460. The data set is classed as cell-based. Conditions: Homo sapiens, 96 h; NCI-H460, 4 days, crystal violet; read-out: Inhibition of NCI-H460 cell proliferation IC50. Here is the method: (§1) After 24 hours, the cells of one plate (zero-point plate) were stained with crystal violet (see below), while the medium of the other plates was replaced by fresh culture medium (200 μl), to which the test substances were added in various concentrations (0 μM, as well as in the range of 0.001-10 μM; the final concentration of the solvent dimethyl sulfoxide was 0.5%). The cells were incubated for 4 days in the presence of test substances. Cell proliferation was determined by staining the cells with crystal violet: the cells were fixed by adding 20 μl/measuring point of an 11% glutaric aldehyde solution for 15 minutes at room temperature. After three washing cycles of the fixed cells with water, the plates were dried at room temperature. The cells were stained by adding 100 μl/measuring point of a 0.1% crystal violet solution (pH 3.0). After three washing cycles of the stained cells with water, the plates were dried at room temperature. The dye was dissolved by adding 100 μl/measuring point of a 10% acetic acid solution. […] The change of cell number, in percent, was calculated by normalization of the measured values to the extinction values of the zero-point plate (=0%) and the extinction of the untreated (0 μm) cells (=100%).

The test system of the next data set is HeLa-MaTu-ADR cells. The experiment in a line: Proliferation assay, HeLa-MaTu-ADR. The data set is classed as cell-based. As to conditions: Homo sapiens, 96 h; HeLa-MaTu-ADR, 4 days, crystal violet; read-out: Inhibition of HeLa-MaTu-ADR cell proliferation IC50. Here is the method: as §1
For another data set, the system named is DU145 cells. The experiment in a line: Proliferation assay, DU145. The data set is classed as cell-based. Conditions: Homo sapiens, DU-145, 96 h; DU145, 4 days, crystal violet; read-out: Inhibition of DU145 cell proliferation IC50. Here is the method: as §1
The test system of the next data set is Caco-2 cells. As to the kind of experiment: Proliferation assay, Caco-2. The data set is classed as cell-based. As to conditions: Homo sapiens, 96 h; Caco-2, 4 days, crystal violet; read-out: Inhibition of Caco-2 cell proliferation IC50. Here is the method:
as §1

In the next data set the test system is B16F10 cells. The experiment in a line: Proliferation assay, B16F10. It is filed as cell-based. As to conditions: Mus musculus, B16-F10, 96 h; B16F10, 4 days, crystal violet; read-out: Inhibition of B16F10 cell proliferation IC50. Here is the method:
as §1

Another data set relates to HeLa cells. As to the kind of experiment: Proliferation assay, HeLa. The data set is classed as cell-based. As to conditions: Homo sapiens, 96 h, 4 days, crystal violet, read-out: Inhibition of HeLa cell proliferation IC50. Here is the method: as §1
The next data set has as its system A2780 cells. As to the kind of experiment: Proliferation assay, A2780. Conditions: Homo sapiens, 96 h; A2780, 4 days, crystal violet; read-out: Inhibition of A2780 cell proliferation IC50. The data set is classed as cell-based. Here is the method: Cultivated tumour cells (HeLa, human cervical tumour cells, ATCC CCL-2; NCI-H460, human non-small cell lung carcinoma cells, ATCC HTB-177; A2780, human ovarian carcinoma cells, ECACC #93112519; DU 145, hormone-independent human prostate carcinoma cells, ATCC HTB-81; HeLa-MaTu-ADR, multidrug-resistant human cervical carcinoma cells, EPO-GmbH Berlin; Caco-2, human colorectal carcinoma cells, ATCC HTB-37; B16F10, mouse melanoma cells, ATCC CRL-6475) were plated at a density of 5,000 cells/well (DU145, HeLa-MaTu-ADR), 3,000 cells/well (NCI-H460, HeLa), 2,500 cells/well (A2780), 1,500 cells/well (Caco-2), or 1,000 cells/well (B16F10) in a 96-well multititer plate in 200 μL of their respective growth medium supplemented 10% fetal calf serum. […] Cell proliferation was determined by staining the cells with crystal violet: the cells were fixed by adding 20 μl/measuring point of an 11% glutaric aldehyde solution for 15 minutes at room temperature. […] The extinction was determined by photometry at a wavelength of 595 nm. The change of cell number, in percent, was calculated by normalization of the measured values to the extinction values of the zero-point plate (=0%) and the extinction of the untreated (0 μm) cells (=100%).

Description for CDK2/CycE: CDK2/CycE-inhibitory activity of compounds of the present invention was quantified employing the CDK2/CycE TR-FRET assay as described in the following paragraphs:
Recombinant fusion proteins of GST and human CDK2 and of GST and human CycE, expressed in insect cells (Sf9) and purified by Glutathion-Sepharose affinity chromatography, were purchased from ProQinase GmbH (Freiburg, Germany). As substrate for the kinase reaction biotinylated peptide biotin-Ttds-[sequence] (C-terminus in amid form) was used which can be purchased e.g. form the company JERINI Peptide Technologies (Berlin, Germany).
For the assay 50 nl of a 100 fold concentrated solution of the test compound in DMSO was pipetted into a black low volume 384 well microtiter plate (Greiner Bio-One, Frickenhausen, Germany), 2 μl of a solution of CDK2/CycE in aqueous assay buffer [50 mM Tris/HCl pH 8.0, 10 mM MgCl2, 1.0 mM dithiothreitol, 0.1 mM sodium ortho-vanadate, 0.01% (v/v) Nonidet-P40 (Sigma)] were added and the mixture was incubated for 15 min at 22° C. to allow pre-binding of the test compounds to the enzyme before the start of the kinase reaction. Then the kinase reaction was started by the addition of 3 μl of a solution of adenosine-tri-phosphate (ATP, 16.7 μM=>final conc. in the 5 μl assay volume is 10 μM) and substrate (1.25 μM=>final conc. in the 5 μl assay volume is 0.75 μM) in assay buffer and the resulting mixture was incubated for a reaction time of 25 min at 22° C. The concentration of CDK2/CycE was adjusted depending of the activity of the enzyme lot and was chosen appropriate to have the assay in the linear range, typical concentrations were in the range of 130 ng/mL. The reaction was stopped by the addition of 5 μl of a solution of TR-FRET detection reagents (0.2 μM streptavidine-XL665 [Cisbio Bioassays, Codolet, France] and 1 nM anti-RB(pSer807/pSer811)-antibody from BD Pharmingen [#558389] and 1.2 nM LANCE EU-W1024 labeled anti-mouse IgG antibody [Perkin-Elmer, product no. AD0077]) in an aqueous EDTA-solution (100 mM EDTA, 0.2% (w/v) bovine serum albumin in 100 mM HEPES/NaOH pH 7.0).
The resulting mixture was incubated 1 h at 22° C. to allow the formation of complex between the phosphorylated biotinylated peptide and the detection reagents. Subsequently the amount of phosphorylated substrate was evaluated by measurement of the resonance energy transfer from the Eu-chelate to the streptavidine-XL. Therefore, the fluorescence emissions at 620 nm and 665 nm after excitation at 350 nm was measured in a TR-FRET reader, e.g. a Rubystar (BMG Labtechnologies, Offenburg, Germany) or a Viewlux (Perkin-Elmer). The ratio of the emissions at 665 nm and at 622 nm was taken as the measure for the amount of phosphorylated substrate.

Regarding `COc1cc(F)ccc1-c1nc(Nc2cccc(CS(C)(=O)=O)c2)ncc1F` [Example 1, 5-Fluoro-4-(4-fluoro-2-methoxyphenyl)-N-{3 [(methylsulfonyl)methyl]phenyl}pyrimidin-2-amine], the Papp A→B (usually the apparent permeability from the apical to the basolateral side of a cell layer) at 2 h, 2 μM in the data set “Caco-2 permeation assay” was 20.6 ×10⁻⁶ cm/s. The Papp B→A – broadly, the apparent permeability from the basolateral to the apical side of a cell layer – at 2 h, 2 μM in the data set “Caco-2 permeation assay” was 8.5 ×10⁻⁶ cm/s. Further, the IC50 against CDK2/CycE is 300 nM; in the data set with NCI-H460 cells it was 330 nM; in the data set on HeLa-MaTu-ADR cells, 170 nM; in the data set on DU145 cells it was 290 nM; in the data set on Caco-2 cells it was 260 nM; in the data set with B16F10 cells, 310 nM. Besides, the IC50 with HeLa cells was 290 nM.

Regarding `COc1cc(F)ccc1-c1nc(Nc2cc(F)cc(CS(C)(=O)=O)c2)ncc1F` [Example 12, 5-Fluoro-4-(4-fluoro-2-methoxyphenyl)-N-{3-fluoro-5-[(methylsulfonyl)methyl]phenyl}pyrimidin-2-amine], the Papp A→B at 2 h, 2 μM in the data set “Caco-2 permeation assay” is 9.7 ×10⁻⁶ cm/s. For the same compound, the Papp B→A at 2 h, 2 μM in the data set “Caco-2 permeation assay” came to 3.1 ×10⁻⁶ cm/s. In addition, the IC50 at CDK2/CycE worked out at 200 nM; in the data set on NCI-H460 cells it was 360 nM; in the data set with A2780 cells, 110 nM; in the data set with HeLa-MaTu-ADR cells, 120 nM; in the data set on DU145 cells, 310 nM; in the data set with Caco-2 cells, 380 nM. The IC50 with B16F10 cells is 360 nM; with HeLa cells it was 110 nM.
